Measured values published in patent US20100081719A1 (priority 2006, published 2010).
“And” between values parts separate entries of the source, which are not always exact repeats. Equal values may be shown once. “Also recorded” adds a separate entry of the source. Where a name gives a salt, the structure may show the parent alone.

Tested on: patients who met the 1990 ACR criteria for fibromyalgia syndrome
Assay: Multi-center double-blind, randomized, placebo-controlled study of milnacipran for the treatment of fibromyalgia (Example 1)
Format: in vivo, human
Conditions: for Responders for the treatment of the pain of fibromyalgia (% = m/n): observed cases (OC), intent-to-treat
Experimental: The primary outcome was a composite responder analysis assessing response rate at weeks 14 and 15, and the secondary analysis assessed response rate at weeks 26 and 27.
This was a multi-center, randomized, double-blinded, placebo-controlled three-arm study, which enrolled 888 patients who met the 1990 ACR criteria for fibromyalgia syndrome as well as the more detailed admission criteria outlined in the protocol.
Patients recorded baseline symptoms for the first two weeks after washing off anti-depressants, benzodiazepines, and certain other drugs that could potentially interfere with efficacy measurements.
All randomized medications (placebo and milnacipran) were administered in a split-dose (BID) fashion. The doses were administered in a dose escalation regimen as outlined below:
d. FMS Status Assessments: Patient pain 24 hour and 7 day recall VAS, the SF-36, Multiple Ability Self-report Questionnaire (MASQ, cognitive function), the Multidimensional Health Assessment Questionnaire (MDHAQ) and the Multidimensional Fatigue Inventory (MFI). Diary assessments include current pain (morning, random daily, and evening reports); daily recall pain (morning report); medications taken (evening report); overall pain past week (weekly report), overall fatigue in the last week (weekly report), and the extent that pain kept the patient from caring for themselves (weekly report).
The SF-36 is a multi-purpose, short-form health survey. It yields an 8-scale profile of functional health and well-being scores, psychometrically-based physical and mental health summary measures, and a preference-based health utility index (Ware J E, Snow K K, Kosinski M, Gandek B. SF-36® Health Survey Manual and Interpretation Guide. Boston, Mass.: New England Medical Center, The Health Institute, 1993). […] The SF-36 has proven useful in surveys of general and specific populations, comparing the relative burden of diseases, and in differentiating the health benefits produced by a wide range of different treatments.
The primary endpoint of this study was a composite responder analysis implementing analysis of three domains of interest, evaluated at […]. The domains measured were:
For the primary analysis, the pain domain score was determined by a calculation that compared the average of treatment weeks 14 and 15 to the two baseline weeks, and treatment weeks 26 and 27 vs. baseline for the secondary analysis. The last observation was carried forward if neither the week 14 nor week 15 (or week 26/27) patient self-reported pain score is available to compare to the baseline value.
A responder was defined as a subject who experienced a greater than 30% reduction in pain from baseline and improvement on the PGIC.
See Table 1 for a summary of the results in the Intent-to-Treat Population and Table 2 for a summary of the Last Observation Carried Forward (LOCF), Baseline Observation Carried Forward (BOCF) and study completer (OC) populations. LOCF is an analysis in which observations are carried forward to the last time point for patients who dropped out. The LOCF analysis treats the carried-forward data as observed data at the last time point. BOCF is an analysis that requires the patient remain active in the trial to be evaluated for response. If a patient withdraws from the trial for any reason they are classed as a non-responder irregardless of their pain and global scores at the time of withdrawal.

CCN(CC)C(=O)C1(c2ccccc2)CC1CN (racemic) [milnacipran, Z-2-aminomethyl-1-phenyl-N, N-diethylcyclopropanecarboxamide hydrochloride]
Treatment of fatigue associated with FMS (MFI total score / MFI physical fatigue), comparison with placebo (100 mg/day vs placebo): superior to placebo | SF-36 Physical Function (100 mg/day, treatment week 3): 6.31 | SF-36 Physical Function (100 mg/day, treatment week 7): 6.62 | SF-36 Physical Function (100 mg/day, treatment week 11): 7.70 | SF-36 Physical Function (100 mg/day, treatment week 15): 7.70 | SF-36 Physical Function (100 mg/day, treatment week 19): 7.71 | SF-36 Physical Function (100 mg/day, treatment week 23): 7.07 | SF-36 Physical Function (100 mg/day, treatment week 27): 7.11 | Responders for the treatment of the pain of fibromyalgia (% = m/n) (100 mg/day, treatment weeks 14-15 (3 month), hydrochloride): 53.33% and 53.3% | Responders for the treatment of the pain of fibromyalgia (% = m/n) (100 mg/day, treatment weeks 14-15 (3 month), listed as Milnacipran, hydrochloride): 72 (53.33) % | Responders for the treatment of the pain of fibromyalgia (% = m/n) (100 mg/day, treatment weeks 26-27 (6 month), hydrochloride): 49.59% and 49.6% | Responders for the treatment of the pain of fibromyalgia (% = m/n) (100 mg/day, treatment weeks 26-27 (6 month), listed as Milnacipran, hydrochloride): 60 (49.59) % | Individual component responder rate, PGIC (LOCF) (100 mg, 3 month): 54.0% | Individual component responder rate, Pain (LOCF) (100 mg, 3 month): 35.7% | Pain composite responder rate, Primary Analysis (LOCF) (100 mg, 3 month): 33.5% | Pain composite responder rate, Sensitivity Analysis I (BOCF) (100 mg, 3 month): 32.1% | Pain composite responder rate, Sensitivity Analysis II (100 mg, 3 month): 32.% | Pain composite responder rate, Sensitivity Analysis III (100 mg, 3 month): 32.1% | Individual component responder rate, PGIC (LOCF) (100 mg, 6 month): 49.6% | Individual component responder rate, Pain (LOCF) (100 mg, 6 month): 35.7% | Pain composite responder rate, Primary Analysis (LOCF) (100 mg, 6 month): 30.8% | Pain composite responder rate, Sensitivity Analysis I (BOCF) (100 mg, 6 month): 26.8% | Pain composite responder rate, Sensitivity Analysis II (100 mg, 6 month): 27.2% | Pain composite responder rate, Sensitivity Analysis III (100 mg, 6 month): 29.5% | MFI (change from baseline) Physical fatigue (range 4 to 20) (100 mg, treatment week 3): −0.99 | MFI (change from baseline) Total score (range 20 to 100) (100 mg, treatment week 3): −3.68 | MFI (change from baseline) Physical fatigue (range 4 to 20) (100 mg, treatment week 7): −1.23 | MFI (change from baseline) Total score (range 20 to 100) (100 mg, treatment week 7): −4.32 | MFI (change from baseline) Physical fatigue (range 4 to 20) (100 mg, treatment week 11): −1.46 | MFI (change from baseline) Total score (range 20 to 100) (100 mg, treatment week 11): −5.16 | MFI (change from baseline) Physical fatigue (range 4 to 20) (100 mg, treatment week 15): −1.29 | MFI (change from baseline) Total score (range 20 to 100) (100 mg, treatment week 15): −5.15 | MFI (change from baseline) Physical fatigue (range 4 to 20) (100 mg, treatment week 19): −1.34 | MFI (change from baseline) Total score (range 20 to 100) (100 mg, treatment week 19): −4.97 | MFI (change from baseline) Physical fatigue (range 4 to 20) (100 mg, treatment week 23): −1.23 | MFI (change from baseline) Total score (range 20 to 100) (100 mg, treatment week 23): −4.44 | MFI (change from baseline) Physical fatigue (range 4 to 20) (100 mg, treatment week 27): −1.37 | MFI (change from baseline) Total score (range 20 to 100) (100 mg, treatment week 27): −5.00 | Treatment of fatigue associated with FMS (MFI), comparison of doses (200 mg/day (high dose) vs 100 mg/day, hydrochloride): superior to milnacipran 100 mg/day; also recorded: significantly more effective treatment | Treatment of fatigue associated with FMS (MFI total score / MFI physical fatigue), comparison with placebo (200 mg/day vs placebo): superior to placebo | SF-36 Physical Function (200 mg/day, treatment week 3): 7.44 | SF-36 Physical Function (200 mg/day, treatment week 7): 8.80 | SF-36 Physical Function (200 mg/day, treatment week 11): 8.46 | SF-36 Physical Function (200 mg/day, treatment week 15): 8.44 | SF-36 Physical Function (200 mg/day, treatment week 19): 8.37 | SF-36 Physical Function (200 mg/day, treatment week 23): 7.85 | SF-36 Physical Function (200 mg/day, treatment week 27): 7.95 | Responders for the treatment of the pain of fibromyalgia (% = m/n) (200 mg/day, treatment weeks 14-15 (3 month), hydrochloride): 55.0% | Responders for the treatment of the pain of fibromyalgia (% = m/n) (200 mg/day, treatment weeks 14-15 (3 month), listed as Milnacipran, hydrochloride): 143 (55.00) % | Responders for the treatment of the pain of fibromyalgia (% = m/n) (200 mg/day, treatment weeks 26-27 (6 month), hydrochloride): 51.74% and 51.7% | Responders for the treatment of the pain of fibromyalgia (% = m/n) (200 mg/day, treatment weeks 26-27 (6 month), listed as Milnacipran, hydrochloride): 119 (51.74) % | Individual component responder rate, PGIC (LOCF) (200 mg, 3 month): 50.6% | Individual component responder rate, Pain (LOCF) (200 mg, 3 month): 38.3% | Pain composite responder rate, Primary Analysis (LOCF) (200 mg, 3 month): 34.9% | Pain composite responder rate, Sensitivity Analysis I (BOCF) (200 mg, 3 month): 32.4% | Pain composite responder rate, Sensitivity Analysis II (200 mg, 3 month): 32.7% | Pain composite responder rate, Sensitivity Analysis III (200 mg, 3 month): 32.4% | Individual component responder rate, PGIC (LOCF) (200 mg, 6 month): 49.9% | Individual component responder rate, Pain (LOCF) (200 mg, 6 month): 35.4% | Pain composite responder rate, Primary Analysis (LOCF) (200 mg, 6 month): 32.2% | Pain composite responder rate, Sensitivity Analysis I (BOCF) (200 mg, 6 month): 27.0% | Pain composite responder rate, Sensitivity Analysis II (200 mg, 6 month): 28.6% | Pain composite responder rate, Sensitivity Analysis III (200 mg, 6 month): 29.9% | MFI (change from baseline) Physical fatigue (range 4 to 20) (200 mg, treatment week 3): −1.20 | MFI (change from baseline) Total score (range 20 to 100) (200 mg, treatment week 3): −4.58 | MFI (change from baseline) Physical fatigue (range 4 to 20) (200 mg, treatment week 7): −1.56 | MFI (change from baseline) Total score (range 20 to 100) (200 mg, treatment week 7): −5.92 | MFI (change from baseline) Physical fatigue (range 4 to 20) (200 mg, treatment week 11): −1.54 | MFI (change from baseline) Total score (range 20 to 100) (200 mg, treatment week 11): −5.67 | MFI (change from baseline) Physical fatigue (range 4 to 20) (200 mg, treatment week 15): −1.50 | MFI (change from baseline) Total score (range 20 to 100) (200 mg, treatment week 15): −5.62 | MFI (change from baseline) Physical fatigue (range 4 to 20) (200 mg, treatment week 19): −1.54 | MFI (change from baseline) Total score (range 20 to 100) (200 mg, treatment week 19): −5.67 | MFI (change from baseline) Physical fatigue (range 4 to 20) (200 mg, treatment week 23): −1.44 | MFI (change from baseline) Total score (range 20 to 100) (200 mg, treatment week 23): −4.94 | MFI (change from baseline) Physical fatigue (range 4 to 20) (200 mg, treatment week 27): −1.49 | MFI (change from baseline) Total score (range 20 to 100) (200 mg, treatment week 27): −5.80 | Relief from fibromyalgia and its symptoms (continued administration (daily for at least three months)): long-term (at least three months) relief | Long-term treatment of fibromyalgia and some of its symptoms, comparison of doses (low dose (100 mg/day) vs high dose (200 mg/day), continued administration): almost as effective as
